{"source": "patent US20050020810A1", "about": "“Peptides which target tumor and endothelial cells, compositions and uses thereof” (priority 2002, published 2005)", "origin": "cited, not measured here", "key": {"CT26 colon cancer": {"system": "CT26 colon cancer", "conditions": "in combination with 5-FU infusion"}, "MatLyLu cells": {"system": "MatLyLu cells", "conditions": "rat model"}}}
{"substance": "Ac—PHSCN—NH2", "values": [{"measurement": "survival", "setting": "CT26 colon cancer", "result": "improved survival"}, {"measurement": "metastasis of MatLyLu cells", "setting": "MatLyLu cells", "result": "completely inhibits"}, {"measurement": "DU145 invasion", "setting": "DU145", "result": "completely inhibits"}]}
